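How tested: cells in 96-well plates exposed to compound for 48 hours at five concentrations. GI50 = concentration required for 50% inhibition of growth. Definition used: TGI = concentration required for complete inhibition of growth.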
Experiments:
Experiment in all cases: NCI tumour cell line growth inhibition, 48 h
786-0 renal = tested on: 786-0 renal
A498 renal = tested on: A498 renal
A549 NSCLC = tested on: A549 NSCLC
ACHN renal = tested on: ACHN renal
BT-549 breast = tested on: BT-549 breast
CAKI-1 renal = tested on: CAKI-1 renal
CCRF-CEM leukemia = tested on: CCRF-CEM leukemia
COLO 205 colon = tested on: COLO 205 colon
DU-145 prostate = tested on: DU-145 prostate
EKVX NSCLC = tested on: EKVX NSCLC
HCC-2998 colon = tested on: HCC-2998 colon
HCT-116 colon = tested on: HCT-116 colon
HCT-15 colon = tested on: HCT-15 colon
HL-60(TB) leukemia = tested on: HL-60(TB) leukemia
HOP-62 NSCLC = tested on: HOP-62 NSCLC
HOP-92 NSCLC = tested on: HOP-92 NSCLC
HS 578T breast = tested on: HS 578T breast
HT29 colon = tested on: HT29 colon
IGROV1 ovarian = tested on: IGROV1 ovarian
K-562 leukemia = tested on: K-562 leukemia
KM12 colon = tested on: KM12 colon
LOX IMVI melanoma = tested on: LOX IMVI melanoma
M14 melanoma = tested on: M14 melanoma
MALME-3M melanoma = tested on: MALME-3M melanoma
MCF7 breast = tested on: MCF7 breast
MDA-MB-231 breast = tested on: MDA-MB-231 breast
MDA-MB-435 = tested on: MDA-MB-435
MDA-MB-468 breast = tested on: MDA-MB-468 breast
MOLT-4 leukemia = tested on: MOLT-4 leukemia
NCI-H226 lung = tested on: NCI-H226 lung
NCI-H23 lung = tested on: NCI-H23 lung
NCI-H460 lung = tested on: NCI-H460 lung
NCI-H522 lung = tested on: NCI-H522 lung
NCI/ADR-RES ovarian = tested on: NCI/ADR-RES ovarian
OVCAR-3 ovarian = tested on: OVCAR-3 ovarian
OVCAR-4 ovarian = tested on: OVCAR-4 ovarian
OVCAR-5 ovarian = tested on: OVCAR-5 ovarian
OVCAR-8 ovarian = tested on: OVCAR-8 ovarian
PC-3 prostate = tested on: PC-3 prostate
RPMI-8226 leukemia = tested on: RPMI-8226 leukemia
RXF 393 renal = tested on: RXF 393 renal
SF-268 CNS = tested on: SF-268 CNS
SF-295 CNS = tested on: SF-295 CNS
SF-539 CNS = tested on: SF-539 CNS
SK-MEL-2 melanoma = tested on: SK-MEL-2 melanoma
SK-MEL-28 melanoma = tested on: SK-MEL-28 melanoma
SK-MEL-5 melanoma = tested on: SK-MEL-5 melanoma
SK-OV-3 ovarian = tested on: SK-OV-3 ovarian
SN12C renal = tested on: SN12C renal
SNB-19 CNS = tested on: SNB-19 CNS
SNB-75 CNS = tested on: SNB-75 CNS
SR leukemia = tested on: SR leukemia
SW-620 colon = tested on: SW-620 colon
TK-10 renal = tested on: TK-10 renal
U251 CNS = tested on: U251 CNS
UACC-257 melanoma = tested on: UACC-257 melanoma
UACC-62 melanoma = tested on: UACC-62 melanoma
UO-31 renal = tested on: UO-31 renal

SMILES: O=C1NC(=S)S/C1=C\c1cn(-c2ccccc2)nc1-c1ccc([N+](=O)[O-])cc1
- GI50 (786-0 renal): 3.49 µM
- TGI (786-0 renal): 13.5 µM
- GI50 (A498 renal): 2.68 µM
- TGI (A498 renal): 8.93 µM
- GI50 (A549 NSCLC): 3.16 µM
- TGI (A549 NSCLC): 25.3 µM
- GI50 (ACHN renal): 3.04 µM
- TGI (ACHN renal): 13.4 µM
- GI50 (BT-549 breast): 2.15 µM
- TGI (BT-549 breast): 6.51 µM
- GI50 (CAKI-1 renal): 3.04 µM
- TGI (CAKI-1 renal): 13.5 µM
- GI50 (CCRF-CEM leukemia): 2.33 µM
- TGI (CCRF-CEM leukemia): > 100 µM
- GI50 (COLO 205 colon): 3.5 µM
- TGI (COLO 205 colon): 17.6 µM
- GI50 (DU-145 prostate): 3.63 µM
- TGI (DU-145 prostate): > 100 µM
- GI50 (EKVX NSCLC): 2.6 µM
- TGI (EKVX NSCLC): 10.4 µM
- GI50 (HCC-2998 colon): 2.88 µM
- TGI (HCC-2998 colon): 12.6 µM
- GI50 (HCT-116 colon): 2.71 µM
- TGI (HCT-116 colon): 10.9 µM
- GI50 (HCT-15 colon): 2.1 µM
- TGI (HCT-15 colon): 12.9 µM
- GI50 (HL-60(TB) leukemia): 2.78 µM
- TGI (HL-60(TB) leukemia): 21.2 µM
- GI50 (HOP-62 NSCLC): 3.45 µM
- TGI (HOP-62 NSCLC): 16.5 µM
- GI50 (HOP-92 NSCLC): 2.73 µM
- TGI (HOP-92 NSCLC): 8.64 µM
- GI50 (HS 578T breast): 2.56 µM
- TGI (HS 578T breast): 9.27 µM
- GI50 (HT29 colon): 3.86 µM
- TGI (HT29 colon): 89.5 µM
- GI50 (IGROV1 ovarian): 3.4 µM
- TGI (IGROV1 ovarian): 14.8 µM
- GI50 (K-562 leukemia): 2.53 µM
- TGI (K-562 leukemia): > 100 µM
- GI50 (KM12 colon): 3.34 µM
- TGI (KM12 colon): 15.4 µM
- GI50 (LOX IMVI melanoma): 3.22 µM
- TGI (LOX IMVI melanoma): 12.8 µM
- GI50 (M14 melanoma): 3.4 µM
- TGI (M14 melanoma): 14.2 µM
- GI50 (MALME-3M melanoma): 1.96 µM
- TGI (MALME-3M melanoma): 6.4 µM
- GI50 (MCF7 breast): 2.74 µM
- TGI (MCF7 breast): > 100 µM
- GI50 (MDA-MB-231 breast): 4.17 µM
- TGI (MDA-MB-231 breast): 16.9 µM
- GI50 (MDA-MB-435): 2.86 µM
- TGI (MDA-MB-435): 11.7 µM
- GI50 (MDA-MB-468 breast): 1.9 µM
- TGI (MDA-MB-468 breast): 10.8 µM
- GI50 (MOLT-4 leukemia): 2.89 µM
- TGI (MOLT-4 leukemia): > 100 µM
- GI50 (NCI-H226 lung): 2.49 µM
- TGI (NCI-H226 lung): 12.1 µM
- GI50 (NCI-H23 lung): 2.19 µM
- TGI (NCI-H23 lung): 8.15 µM
- GI50 (NCI-H460 lung): 2.05 µM
- TGI (NCI-H460 lung): 5.8 µM
- GI50 (NCI-H522 lung): 2.39 µM
- TGI (NCI-H522 lung): 18.7 µM
- GI50 (NCI/ADR-RES ovarian): 2.83 µM
- TGI (NCI/ADR-RES ovarian): 12.3 µM
- GI50 (OVCAR-3 ovarian): 2.95 µM
- TGI (OVCAR-3 ovarian): 12.4 µM
- GI50 (OVCAR-4 ovarian): 2.6 µM
- TGI (OVCAR-4 ovarian): 16.4 µM
- GI50 (OVCAR-5 ovarian): 5.53 µM
- TGI (OVCAR-5 ovarian): 26.7 µM
- GI50 (OVCAR-8 ovarian): 3.68 µM
- TGI (OVCAR-8 ovarian): 23.4 µM
- GI50 (PC-3 prostate): 2.71 µM
- TGI (PC-3 prostate): > 100 µM
- GI50 (RPMI-8226 leukemia): 2.66 µM
- TGI (RPMI-8226 leukemia): > 100 µM
- GI50 (RXF 393 renal): 3.2 µM
- TGI (RXF 393 renal): 8.61 µM
- GI50 (SF-268 CNS): 3.01 µM
- TGI (SF-268 CNS): > 100 µM
- GI50 (SF-295 CNS): 2.39 µM
- TGI (SF-295 CNS): 11.2 µM
- GI50 (SF-539 CNS): 3.45 µM
- TGI (SF-539 CNS): 13.8 µM
- GI50 (SK-MEL-2 melanoma): 2.42 µM
- TGI (SK-MEL-2 melanoma): 7.46 µM
- GI50 (SK-MEL-28 melanoma): 2.68 µM
- TGI (SK-MEL-28 melanoma): 9.82 µM
- GI50 (SK-MEL-5 melanoma): 1.34 µM
- TGI (SK-MEL-5 melanoma): 3.3 µM
- GI50 (SK-OV-3 ovarian): 3.33 µM
- TGI (SK-OV-3 ovarian): 12.9 µM
- GI50 (SN12C renal): 2.53 µM
- TGI (SN12C renal): 15.2 µM
- GI50 (SNB-19 CNS): 3.46 µM
- TGI (SNB-19 CNS): 23.2 µM
- GI50 (SNB-75 CNS): 1.83 µM
- TGI (SNB-75 CNS): 11.5 µM
- GI50 (SR leukemia): 4.3 µM
- TGI (SR leukemia): > 100 µM
- GI50 (SW-620 colon): 3.27 µM
- TGI (SW-620 colon): > 100 µM
- GI50 (TK-10 renal): 3.81 µM
- TGI (TK-10 renal): > 100 µM
- GI50 (U251 CNS): 2.94 µM
- TGI (U251 CNS): 11 µM
- GI50 (UACC-257 melanoma): 2.43 µM
- TGI (UACC-257 melanoma): 7.67 µM
- GI50 (UACC-62 melanoma): 1.23 µM
- TGI (UACC-62 melanoma): 3.18 µM
- GI50 (UO-31 renal): 2.5 µM
- TGI (UO-31 renal): 11.9 µM

Source: PubChem BioAssay (NCI)
